What was measured:
[1] = target: BRD4 (Homo sapiens (Human), UniProt O60885); assay: TR-FRET in-vitro binding assay for BRD4; conditions: 45 nM His-Brd4(44-477), acetyl-histone H4 (AcK 5, 8, 12, 16) peptide
Procedure, shortened: (§1)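 TR-FRET binding read after 35 min incubation at 30° C. Compounds dispensed from 90% DMSO solutions and tested at 8 concentrations in a 13.55 μL total reaction volume.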

[2] = target: BRD2 (Homo sapiens (Human), UniProt P25440); assay: TR-FRET in-vitro binding assay for BRD2; conditions: 45 nM His-Brd2(60-472), acetyl-histone H4 (AcK 5, 8, 12, 16) peptide
Experimental: TR-FRET In-Vitro Binding Assays for BRD2, BRD3, and BRD4: All assays were performed in 384-well microtiter plates. […] Liquid handling and incubation steps were done on an Innovadyne Nanodrop Express equipped with a robotic arm (Thermo CatX, Perkin Elmer/Caliper Twister II) and an incubator (Liconic STX40, Thermo Cytomat 2C450). The assay plates were prepared by addition of 50 nl per well of compound solution in 90% DMSO HummingBird nanodispenser (Zinsser Analytic). […] Reactions were incubated at 30° C. for 35 minutes. […] After 35 minutes incubation at 30° C., plates were measured in a Perkin Elmer EnVision multilabel reader. […] The stock solutions were stored at […] if not used immediately. For the test procedure the vials were defrosted and identified by a scanner whereby a working sheet was generated that guided the subsequent working steps. Compound dilutions were made in 96 well plates. This format enabled the assay of maximally […] at 8 concentrations (single points) including 4 reference compounds, if desired (known BET inhibitors from the prior art, for this and other assays of the type disclosed herein). The dilution protocol included the production of “pre-dilution plates”, “master plates” and “assay plates”. Polypropylene 96-well plates were used as pre-dilution plates. […] All dilution steps were done on a HamiltonSTAR robot. […] Identical “assay plates” were then prepared by pipetting 50 nL each of compound dilutions of the “master plates” into 384-well “assay plates” by means of a HummingBird 384-channel dispenser. These plates were used directly for the assay which was performed in a total volume of 13.55 μL.

[3] = target: BRD3 (Homo sapiens (Human), UniProt Q15059); assay: TR-FRET in-vitro binding assay for BRD3; conditions: 45 nM His-Brd3(20-477), acetyl-histone H4 (AcK 5, 8, 12, 16) peptide
Procedure, shortened: as §1

[4] = tested on: MV-4-11; assay: Cell growth inhibition assay (CellTiter-Glo), MV-4-11; format: cell-based, human; conditions: MV-4-11 cells, 4 days; for GI50: Homo sapiens, MV4-11, 96 h, half-maximal growth inhibition; for MV-4-11 TGI: total growth inhibition
Procedure, shortened: (§2)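 A separate day 0 plate allows cytotoxic and cytostatic effects to be distinguished: viable-cell ATP after 4-day compound treatment (top 10 μM, 3-fold steps) is expressed relative to it. DMSO-only wells count as 100% and medium-only wells as −100%.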

[5] = tested on: THP-1; assay: Cell growth inhibition assay (CellTiter-Glo), THP-1; format: cell-based, human; conditions: THP-1 cells, 4 days; for GI50: Homo sapiens, 96 h, half-maximal growth inhibition; for THP-1 TGI: total growth inhibition
Procedure, shortened: as §2

[6] = tested on: K-562; assay: Cell growth inhibition assay (CellTiter-Glo), K-562; format: cell-based, human; conditions: K-562 cells, 4 days; for GI50: Homo sapiens, K562, 96 h, half-maximal growth inhibition; for K-562 TGI: total growth inhibition
Procedure, shortened: as §2

[7] = target: CREBBP (Homo sapiens (Human), UniProt Q92793); assay: AlphaScreen in-vitro binding assay for CREBBP; conditions: 324 nM His-CREBBP (1081-1197), acetyl-histone H4 (AcK 5, 8, 12) peptide
Procedure, shortened: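 IC50 values were derived by non-linear regression of percent inhibition across 8 compound concentrations. Protein was His-tagged CREBBP bromodomain (1081-1197), peptide acetyl-histone H4 (AcK 5, 8, 12), in HEPES pH 7.5 buffer. Read-out was AlphaScreen with Ni-chelate acceptor and streptavidin donor beads, 35 min at 30° C then 60 min at RT.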

Chain of BRD2 (P25440 60-472): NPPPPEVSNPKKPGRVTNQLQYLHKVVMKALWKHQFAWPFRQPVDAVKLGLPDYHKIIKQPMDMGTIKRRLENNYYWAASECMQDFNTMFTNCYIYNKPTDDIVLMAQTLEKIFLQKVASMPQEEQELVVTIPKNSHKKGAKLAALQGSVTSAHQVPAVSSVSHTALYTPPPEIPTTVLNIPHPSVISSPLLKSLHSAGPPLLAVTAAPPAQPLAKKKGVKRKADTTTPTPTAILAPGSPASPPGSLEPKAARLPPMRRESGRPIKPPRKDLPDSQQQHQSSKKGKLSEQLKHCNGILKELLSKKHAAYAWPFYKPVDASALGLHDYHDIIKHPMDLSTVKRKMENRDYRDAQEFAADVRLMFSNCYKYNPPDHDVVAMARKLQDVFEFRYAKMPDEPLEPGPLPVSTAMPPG
Chain of BRD3 (Q15059 20-477): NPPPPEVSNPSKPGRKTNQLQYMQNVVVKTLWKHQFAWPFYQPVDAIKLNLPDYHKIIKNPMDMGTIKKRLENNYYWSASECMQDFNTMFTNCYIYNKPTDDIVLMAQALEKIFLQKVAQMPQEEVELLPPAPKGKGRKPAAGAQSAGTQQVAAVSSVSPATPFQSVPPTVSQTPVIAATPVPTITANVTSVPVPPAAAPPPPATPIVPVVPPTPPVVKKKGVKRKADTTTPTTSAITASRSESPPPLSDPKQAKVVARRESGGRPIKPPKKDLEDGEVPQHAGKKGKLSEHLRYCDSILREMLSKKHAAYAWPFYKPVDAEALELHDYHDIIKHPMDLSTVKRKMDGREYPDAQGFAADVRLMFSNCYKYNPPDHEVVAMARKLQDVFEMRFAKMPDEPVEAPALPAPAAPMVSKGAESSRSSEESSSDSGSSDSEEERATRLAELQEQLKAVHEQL
Chain of CREBBP (Q92793 1081-1197): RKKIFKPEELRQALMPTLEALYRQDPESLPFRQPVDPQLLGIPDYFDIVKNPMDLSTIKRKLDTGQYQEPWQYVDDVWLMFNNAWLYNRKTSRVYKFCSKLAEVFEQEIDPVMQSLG

Structure (SMILES) | IC50 [1] [µM] | IC50 [2] [µM] | IC50 [3] [µM] | GI50 [4] [µM] | MV-4-11 TGI [4] [µM] | GI50 [5] [µM] | THP-1 TGI [5] [µM] | GI50 [6] [µM] | K-562 TGI [6] [µM] | IC50 [7] [µM]
COc1ncccc1-c1cc2c([nH]1)C(c1ccc(Cl)cc1)N(c1cc(C)c3nnc(C)n3c1)C2=O (centres unmarked) [Example 27, 6-(4-chlorophenyl)-5-(3,8-dimethyl-[1,2,4]triazolo[4,3-a]pyridin-6-yl)-2-(2-methoxypyridin-3-yl)-5,6-dihydropyrrolo[3,4-b]pyrrol-4(1H)-one] | 0.017 | 0.037 | 0.021 | 0.0225 | 0.0377 | 0.0344 | 0.088 | 0.108 | >10 | 
Cc1cc(N2C(=O)c3cc(-c4cccc(=O)n4C)n(C)c3C2c2ccc(Cl)cc2)cn(C)c1=O (centres unmarked) [Example 48, 6-(4-chlorophenyl)-5-(1,5-dimethyl-6-oxo-1,6-dihydropyridin-3-yl)-1-methyl-2-(1-methyl-6-oxo-1,6-dihydropyridin-2-yl)-5,6-dihydropyrrolo[3,4-b]pyrrol-4(1H)-one] | 0.11 | 0.091 | 0.076 | 0.15 | 0.27 | 0.711 | 1.16 | 1.68 | >10 | 
Cc1cc(N2C(=O)c3cc(-c4ccnc(C(F)(F)F)n4)n(C)c3C2c2ccc(Cl)cc2)cn(C)c1=O (centres unmarked) [Example 49, 6-(4-chlorophenyl)-5-(1,5-dimethyl-6-oxo-1,6-dihydropyridin-3-yl)-1-methyl-2-(2-(trifluoromethyl)pyrimidin-4-yl)-5,6-dihydropyrrolo[3,4-b]pyrrol-4(1H)-one] | 0.083 | 0.076 | 0.075 | 0.0923 | 0.134 | 0.169 | 0.301 | 0.386 | >10 | 
Cc1cc(N2C(=O)c3cc(-c4cccc(N(C)C)n4)n(C)c3C2c2ccc(Cl)cc2)cn(C)c1=O (centres unmarked) [Example 51, 6-(4-chlorophenyl)-5-(1,5-dimethyl-6-oxo-1,6-dihydropyridin-3-yl)-2-(6-(dimethylamino)pyridin-2-yl)-1-methyl-5,6-dihydropyrrolo[3,4-b]pyrrol-4(1H)-one] | 0.033 | 0.032 | 0.038 | 0.0881 | 0.116 | 0.104 | 0.165 | 0.449 | >10 | 
COc1ncc(-c2cc3c(n2C)C(c2ccc(Cl)cc2)N(c2cc(C)c(=O)n(C)c2)C3=O)c(OC)n1 (centres unmarked) [Example 53, 6-(4-chlorophenyl)-2-(2,4-dimethoxypyrimidin-5-yl)-5-(1,5-dimethyl-6-oxo-1,6-dihydropyridin-3-yl)-1-methyl-5,6-dihydropyrrolo[3,4-b]pyrrol-4(1H)-one] | 0.04 | 0.041 | 0.039 |  |  |  |  |  |  | 
Cc1cc(N2C(=O)c3cc(-c4cnc(N(C)C)nc4)n(C)c3C2c2ccc(Cl)cc2)cn(C)c1=O (centres unmarked) [Example 57, 6-(4-chlorophenyl)-5-(1,5-dimethyl-6-oxo-1,6-dihydropyridin-3-yl)-2-(2-(dimethylamino)pyrimidin-5-yl)-1-methyl-5,6-dihydropyrrolo[3,4-b]pyrrol-4(1H)-one] | 0.059 | 0.05 | 0.054 | 0.0376 | 0.0598 | 0.076 | 0.126 | 0.2 | >10 | 
COc1ccc(-c2cc3c(n2C)C(c2ccc(Cl)cc2)N(c2cc(C)c(=O)n(C)c2)C3=O)cn1 (centres unmarked) [Example 58, 6-(4-chlorophenyl)-5-(1,5-dimethyl-6-oxo-1,6-dihydropyridin-3-yl)-2-(6-methoxypyridin-3-yl)-1-methyl-5,6-dihydropyrrolo[3,4-b]pyrrol-4(1H)-one] | 0.042 | 0.04 | 0.034 | 0.0181 | 0.0338 | 0.0332 | 0.0704 | 0.133 | >10 | 
Cc1cc(N2C(=O)c3cc(-c4cccn(C)c4=O)n(C4CC4)c3C2c2ccc(Cl)cc2)cn(C)c1=O (centres unmarked) [Example 65, 6-(4-chlorophenyl)-1-cyclopropyl-5-(1,5-dimethyl-6-oxo-1,6-dihydropyridin-3-yl)-2-(1-methyl-2-oxo-1,2-dihydropyridin-3-yl)-5,6-dihydropyrrolo[3,4-b]pyrrol-4(1H)-one] | 0.22 | 0.12 | 0.2 | 0.0804 | 0.1285 | 0.0963 | 0.1675 | 0.271 | >10 | 
COc1cccc(C2c3c(ccn3C)C(=O)N2c2cc(C)c(=O)n(C)c2)c1 (centres unmarked) [Example 85, 5-(1,5-dimethyl-6-oxo-1,6-dihydropyridin-3-yl)-6-(3-methoxyphenyl)-1-methyl-5,6-dihydropyrrolo[3,4-b]pyrrol-4(1H)-one] | 0.695 | 0.74 | 0.56 |  |  |  |  |  |  | 
COc1cccc(C2c3c(ccn3C)C(=O)N2c2cc(Cl)c(=O)n(C)c2)c1 (centres unmarked) [Example 91, 5-(5-chloro-1-methyl-6-oxo-1,6-dihydropyridin-3-yl)-6-(3-methoxyphenyl)-1-methyl-5,6-dihydropyrrolo[3,4-b]pyrrol-4(1H)-one] |  | 0.83 | 0.667 | 0.371 | 0.6415 | 0.466 | 1.0025 | 1.72 | >10 | 
CNC(=O)c1cn(C)c2c1C(=O)N(c1cc(C)c3nnc(C(F)F)n3c1)C2c1ccc(Cl)cc1 (centres unmarked) [Example 132, 6-(4-chlorophenyl)-5-(3-(difluoromethyl)-8-methyl-[1,2,4]triazolo[4,3-a]pyridin-6-yl)-N,1-dimethyl-4-oxo-1,4,5,6-tetrahydropyrrolo[3,4-b]pyrrole-3-carboxamide] | 0.016 |  | 0.023 | 0.00958 | 0.02315 | 0.0101 | 0.026 | 0.0586 | >10 | 14.1
CC(=O)Nc1cn(C)c2c1C(=O)N(c1cc(C)c3nnc(C(F)F)n3c1)C2c1ccc(Cl)cc1 (centres unmarked) [Example 133, N-(6-(4-chlorophenyl)-5-(3-(difluoromethyl)-8-methyl-[1,2,4]triazolo[4,3-a]pyridin-6-yl)-1-methyl-4-oxo-1,4,5,6-tetrahydropyrrolo[3,4-b]pyrrol-3-yl)acetamide] | 0.029 |  | 0.032 | 0.0246 | 0.0497 | 0.03 | 0.07425 | 0.0927 | >10 | 13.9
Cc1cc(N2C(=O)c3c(NC(=O)CN(C)C)cn(C)c3C2c2ccc(Cl)cc2)cn2c(C(F)F)nnc12 (centres unmarked) [Example 134, N-(6-(4-chlorophenyl)-5-(3-(difluoromethyl)-8-methyl-[1,2,4]triazolo[4,3-a]pyridin-6-yl)-1-methyl-4-oxo-1,4,5,6-tetrahydropyrrolo[3,4-b]pyrrol-3-yl)-2-(dimethylamino)acetamide] | 0.022 |  | 0.029 | 0.0315 | 0.065 | 0.0342 | 0.0824 | 0.181 | >10 | > 37

From patent US9550796B2, “Pyrrolopyrrolone derivatives and their use as BET inhibitors” (NOVARTIS AG, priority 2013, dated 2017)
